Assay results taken from BindingDB's records for doi:10.1002/cbic.201300347 (Fondazione Istituto Italiano Di Tecnologia, 2013).
Structures can show the parent of a compound that is named as a salt.

Target: T1, Fatty-acid amide hydrolase 1 [33-574] (Rattus norvegicus, UniProt P97612)
T1 construct: 33-574
T1 sequence (P97612 whole entry): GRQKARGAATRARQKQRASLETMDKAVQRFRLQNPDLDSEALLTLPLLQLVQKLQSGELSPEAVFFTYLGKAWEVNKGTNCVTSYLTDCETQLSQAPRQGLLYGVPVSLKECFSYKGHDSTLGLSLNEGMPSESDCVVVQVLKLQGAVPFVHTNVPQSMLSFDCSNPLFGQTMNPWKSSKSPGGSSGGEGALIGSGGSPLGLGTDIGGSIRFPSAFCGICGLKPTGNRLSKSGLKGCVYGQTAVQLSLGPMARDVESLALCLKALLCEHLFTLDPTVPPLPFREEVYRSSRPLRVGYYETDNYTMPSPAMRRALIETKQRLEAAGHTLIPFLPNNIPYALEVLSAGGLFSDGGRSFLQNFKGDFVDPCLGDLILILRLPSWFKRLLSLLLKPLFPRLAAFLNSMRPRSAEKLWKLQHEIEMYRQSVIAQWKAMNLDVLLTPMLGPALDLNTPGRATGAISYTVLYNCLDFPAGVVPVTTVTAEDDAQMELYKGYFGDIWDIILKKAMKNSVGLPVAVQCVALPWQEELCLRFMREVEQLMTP

Compound | IC50 [µM]
O=C(n1nc2ccccc2n1)C(F)(F)F [1‐(1,2,3‐benzotriazol‐2‐yl)‐2,2,2‐ trifluoroethanone (Hit 14)] | 400
O=C1CCCc2c1cnc1nc(C(F)(F)F)nn21 [2‐(trifluoromethyl)‐7H,8H,9H‐[1,2,4]triazolo[1,5‐ a]quinazolin‐6‐one (Hit 2)] | 3
FC(F)(F)c1ccccc1N1CCNCC1 [1‐[2‐(trifluoromethyl)phenyl]piperazine hydrochloride (Hit 1)] | 4.2
N#CCc1cccc(C(F)(F)F)c1 [2‐[3‐(trifluoromethyl)phenyl]acetonitrile (Hit 13)] | 720
NC(=O)c1cccc(-c2cc(OC(=O)NC3CCCCC3)ccc2C(=O)O)c1 | 4
Cc1ccc(OC(=O)NC2CCCCC2)cc1-c1cccc(C(N)=O)c1 [3‐(3‐carbamoylphenyl)‐4‐methylphenyl N‐ cyclohexylcarbamate (Compound 1)] | 0.06
O=C(O)C1(C(F)(F)F)CCC1 [1‐(trifluoromethyl)cyclobutane‐1‐carboxylic acid (Hit 9)] | 465
Oc1cccc(C(F)(F)F)c1 [M‐trifluoromethylphenol (Hit 5)] | 450
OC1(C(F)(F)F)CC(c2ccccc2)N=N1 (stereo unspecified) [5‐phenyl‐3‐(trifluoromethyl)‐2,4‐dihydropyrazol‐3‐ ol (Hit 6)] | 32
O=C(c1ccc(Cl)cc1)C(F)(F)F [1‐(4‐chlorophenyl)‐2,2,2‐trifluoroethanone (Hit 3)] | 26
O[C@@H](c1ccccc1)C(F)(F)F [(1S)‐2,2,2‐trifluoro‐1‐phenylethanol (Hit 12)] | 563
OC(c1ccc(Cl)cc1)C(F)(F)F (stereo unspecified) [1‐(4‐chlorophenyl)‐2,2,2‐trifluoroethanol (Hit 11)] | 143
O=C(O)c1cccnc1Nc1cccc(C(F)(F)F)c1 [NSC_4488] | 162
O=C(O)c1cc(=O)cc(C(F)(F)F)o1 [4‐oxo‐6‐(trifluoromethyl)pyran‐2‐carboxylic acid (Hit 10)] | 137
Nc1nc(F)nc2c1ncn2C1O[C@H](CO)[C@@H](O)[C@H]1O (stereo partly drawn) [(3R,4S,5R)‐2‐(6‐amino‐2‐fluoropurin‐9‐yl)‐5‐ (hydroxymethyl)oxolane‐3,4‐diol (Hit 17)] | 1130
NCc1cccc(C(F)(F)F)c1 [[3‐(trifluoromethyl)phenyl]methanamine (Hit 8)] | 270
CS(=O)(=O)c1ccc(N)c(F)c1 [2‐fluoro‐4‐methanesulfonylaniline (Hit 4)] | 58
Nc1cccc(C(=O)Nc2cc(=O)n(CC(F)(F)F)[nH]2)c1 [3‐amino‐N‐[5‐hydroxy‐1‐(2,2,2‐ trifluoroethyl)pyrazol‐3‐yl]benzamide (Hit 18)] | 1320
O=C(Nc1cnc2[nH]ccc2c1)c1cccc(Cl)c1Cl [2,3‐dichloro‐N‐{1H‐pyrrolo[2,3‐b]pyridin‐5‐ yl}benzamide (Compound 2)] | 0.095
FC(F)(F)c1cc(-c2ccccc2)nc2ncnn12 [5‐phenyl‐7‐(trifluoromethyl)‐[1,2,4]triazolo[1,5‐ a]pyrimidine (Hit 15)] | 110
O=C(O)Cn1ccc(C(F)(F)F)n1 [[3‐(trifluoromethyl)pyrazol‐1‐yl]acetic acid (Hit 7)] | 147
